From PMC10380841, “Synthesis, Characterization and Cytotoxic Evaluation of New Pyrrolo[1,2-b]pyridazines Obtained via Mesoionic Oxazolo-Pyridazinones” (International Journal of Molecular Sciences, 2023)
Like-named read-outs stand apart in the source and are kept apart here.

Assays:
Artemia nauplii = tested on: Artemia nauplii; set-up: method as in PMID 16445096; conditions: at 24 and 48 h; cited from earlier work
[1] = tested on: MCF-7 breast adenocarcinoma cells; test: MTS cytotoxicity assay, MCF-7; format: cell-based, human; conditions: Homo sapiens, MCF7; for viability at 40 µM: MCF-7, 40 μM; for viability at 40 µM / viability at 200 µM / viability at 400 µM: read-out: cell viability; for viability at 200 µM: MCF-7, 200 μM; for viability at 400 µM: MCF-7, 400 μM
Experimental: (§1) Therefore, the precursor acids 2a–c and corresponding pyrrolo[1,2-b]pyridazines 5a–c,f were tested for their potential cytotoxic activity. During the assays, increasing concentrations of the compounds, ranging from […], were added for 24 h or 48 h to cancer LoVo, SK-OV-3, MCF-7, and the reference HUVEC cells, previously cultured for 24 h in 96-well flat bottom plates. […] Then, MTS reagent was added, and cells were incubated for 4 h at 37 °C in a 5% CO2 humidified atmosphere. The absorbance values were spectrophotometrically read to a Dynex ELISA reader at λ = […].
(§2) For the evaluation of the in vitro potential anti-proliferative effects of treatments with the new compounds under study against solid tumor-derived cells, several compound-mediated cytotoxicity assays were performed on three adherent tumor standardized cell lines, and normal human endothelial cells, used as control: the MCF-7 human breast adenocarcinoma and SK-OV-3 human ovary adenocarcinoma cell lines were provided from European Collection of Authenticated Cell Cultures (ECACC), while LoVo, human colorectal adenocarcinoma cell line, and HUVEC human umbilical vein endothelial cells were purchased from American Type Culture Collection (ATCC).
(§3) Adherent cells were cultivated in DMEM/F12 medium added with 2 mM L-glutamine and 10% fetal bovine serum, 100 units/mL penicillin, 100 µg/mL streptomycin (Sigma Aldrich, St. Louis, MO, USA) and incubated at 37 °C in 5% CO2 humidified atmosphere. The stock solutions for cell treatments were prepared by dissolving the synthesized compounds in a minimum amount of DMSO. Working dilutions were prepared from the stock solutions in culture medium before each treatment assay. After 24 h, when cell cultures achieved around 70% confluence, treatments were applied for various periods of time with different concentrations of synthesized compounds or oncolytic drugs, used as positive controls.
(§4) Therefore, cell cultures treated with the new compounds or oncolytic drugs for 24 h or 48 h were further subjected to a colorimetric cell viability method, the MTS assay. The absorbance of probes was read, data were calculated, and percentages of cell viability were assessed.
The evaluation of the compound-induced cytotoxicity was made using the CellTiter 96 Aqueous One Solution Cell Proliferation Assay (Promega, Madison, WI, USA), a reagent that contains both MTS (3-(4,5-dimethylthiazol-2-yl)-5-(3-carboxymethoxyphenyl)-2-(4-sulfophenyl)-2H-tetrazolium, inner salt) and PES ([…], a cationic dye with high chemical stability that binds to MTS and forms a stable solution). The assay is based on the ability of the metabolically active cells to reduce the yellow tetrazolium salt MTS to a compound that is soluble in culture medium, the colored formazan, followed by the spectrophotometric evaluation of its concentration.
(§5) Briefly, 1.5 × 10^4 cancer or normal cells were cultured in 100 µL/well for 24 h. After the culture supernatants were discarded, cells were treated for additional 24 h or 48 h with increasing concentrations of new compounds or oncolytic drugs. Following the specific treatments, in each well a volume of 20 µL of coloring mixture reagent of MTS and PES was added, and then the plates were incubated with mild agitation every 20 min for 4 h at 37 °C. The color developed during incubation was spectrophotometrically quantified at λ = 492 nm using a Dynex ELISA reader (DYNEX Technologies—MRS, Chantilly, VA, USA).
(§6) Data were expressed as percentages of cell viability of the treated cells, and were calculated and compared to the untreated cells (considered 100% viable), using the formula:Cell viability (%) = (T − B)/(U − B) × 100 where T = absorbance of treated cells, U = absorbance of untreated cells, and B = absorbance of culture medium (blank), for λ = 492 nm.
The cell viability data were expressed as the mean values ± standard deviations (SD) of three different experiments (n = 3). […]

[2] = tested on: SK-OV-3 ovary adenocarcinoma cells; test: MTS cytotoxicity assay, SK-OV-3; format: cell-based, human; conditions: Homo sapiens
Experimental: as §1, §2, §3, §4
(§7) The evaluation of the compound-induced cytotoxicity was made using the CellTiter 96 Aqueous One Solution Cell Proliferation Assay (Promega, Madison, WI, USA), a reagent that contains both MTS (3-(4,5-dimethylthiazol-2-yl)-5-(3-carboxymethoxyphenyl)-2-(4-sulfophenyl)-2H-tetrazolium, inner salt) and PES ([…], a cationic dye with high chemical stability that binds to MTS and forms a stable solution).
as §5, §6
(§8) The cell viability data were expressed as the mean values ± standard deviations (SD) of three different experiments (n = 3). […] Moreover, a parallel experiment was performed in the absence of cells, with all the concentrations of the compounds being tested for their potential interference with MTS reagents; then, their absorbance values were extracted during calculations.

[3] = MTS cytotoxicity assay, HUVEC normal cells; format: cell-based, human; conditions: human, HUVEC human umbilical vein endothelial cells (normal cells), read-out: cell viability
Experimental: as §1, §2, §3, §4, §7, §5, §6, §8

[4] = tested on: HUVEC human umbilical vein endothelial cells; test: MTS cytotoxicity assay, HUVEC normal cells; format: cell-based; conditions: for cytotoxic effect on HUVEC: 24 h
Experimental: as §1, §2, §3, §4, §7, §5, §6, §8

[5] = tested on: SK-OV-3 ovary adenocarcinoma cells; test: MTS cytotoxicity assay, SK-OV-3; format: cell-based; conditions: Homo sapiens, read-out: cell viability; for viability at 40 µM: SK-OV-3, 40 μM; for viability at 400 µM: SK-OV-3, 400 μM
[6] = Daphnia magna toxicity assay; format: in vivo; conditions: Daphnia magna, in vivo; 48 h
Experimental: (§9) Young organisms of Daphnia magna were selected according to their size from a parthenogenetic culture maintained in an artificial medium for 24 h before the bioassay. The determination was conducted in tissue culture plates with 12 wells (Greiner Bio-One, Monroe, NC, USA), with 10 organisms in each well, and a final volume of 3 mL per sample [65, 66]. As a negative control, DMSO was used at a concentration of 1%. All compounds were tested at six different concentration levels, ranging from 12.5 to 500 μg/mL. All assessments were performed in duplicate.

Daphnia magna Straus = test: Daphnia magna toxicity assay; format: in vivo; conditions: 48 h
Experimental: as §9

[7] = tested on: LoVo colon adenocarcinoma cells; test: MTS cytotoxicity assay, LoVo; format: cell-based, human; conditions: Homo sapiens
Experimental: as §1, §2, §3, §4, §7, §5, §6, §8

[8] = tested on: LoVo colon adenocarcinoma cells; test: MTS cytotoxicity assay, LoVo; format: cell-based; conditions: Homo sapiens, read-out: cell viability
Triticum aestivum L. = test: Triticum test, phytotoxicity (main root length); format: in vivo; conditions: Triticum aestivum, 72 h; Triticum root length, 10–1000 µM, measured over three days
Experimental: Phytobiological testing (Triticum test) was performed by the Constantinescu method which consists in determining the maximum active dilution of a compound. Depending on the duration of action, it can influence root elongation and the […] film. […] Embryonic wheat roots were obtained by germinating homogeneous wheat caryopses in Linhart pots. Then the caryopses with a main root length of 1 cm were placed in the test solutions. For the determination of the action of each compound, five dilutions in the concentration range of 10–1000 µM were obtained and 11 caryopses were placed in them. Petri dishes containing 15 mL of diluted solution were kept under constant conditions of temperature (25 °C), and humidity (60%), in the absence of light. […] The results were expressed in comparison with a 1% DMSO control.
Statistical analyses were performed using the computing and programming environment R, R, v. 4.2.1 [68], under Rstudio, v. 2022.07.2+576 “Spotted Wakerobin” for Windows (RStudio, PBC, Boston, 2022), both for the Triticum and Artemia tests. It used a parametric mixed-effects model (R package “lme4”) and a robust mixed-effects model (R package “robustlmm”), in which root length measurements (Triticum) from all three days were used as the dependent variable, whereas compound, concentration and time were treated as fixed effects, with time (day of measurement) also treated as a random effect. Assessing statistical significance for mixed-effects statistical models is controversial and complex, but as a pragmatic way of working, we have estimated p-values using the Kenward–Rogers approximation (R package “sjPlot”). A variety of R base functions and R packages were used to diagnose the regression models (“car” [72], “MASS” [73], and “gvlma” [74]). Mixed boxplot–dotplot plots were generated using the “ggplot2” package.
The “drc” R package was used to estimate IC50 values for the Triticum bioassay by nonlinear modeling. For Triticum, the relationship between root length and concentration was modeled using Weibull functions with 2, 3, or 4 parameters, depending on the data distribution, the models being selected from a range of several models with different functions and parameters, based on the Akaike’s information criterion (AIC).

[9] = MCF-7, 24 h, read-out: IC50 MCF-7 24 h
[10] = MCF-7, 48 h, read-out: IC50 MCF-7 48 h
[11] = SK-OV-3, 24 h, read-out: IC50 Sk-OV-3 24 h
[12] = SK-OV-3, 48 h, read-out: IC50 Sk-OV-3 48 h

Compound `CCOC(=O)c1cc(CC)n2nc(-c3ccccc3)ccc12` [Compound 5d, Ethyl 7-ethyl-2-phenylpyrrolo[1,2-b]pyridazine-5-carboxylate] has a melting point of 99 to 101 °C.
For `OC[P+](CO)(CO)CO` [THPC, tetrakis(hydroxymethyl) phosphonium chloride], the LC50 (Artemia nauplii) is given as < 1 µM.
`COc1cccc2c1C(=O)c1c(O)c3c(c(O)c1C2=O)C[C@@](O)(C(=O)CO)C[C@@H]3O[C@H]1C[C@H](N)[C@H](O)[C@H](C)O1` [DOX, doxorubicin, reference compound] gave a viability at 40 µM ([1]; 24 h) of 41.8%, a viability at 40 µM ([1]; 48 h) of 36.7% and an IC50 [1, 9] of 14.8 ± 4 µM. It also gave an IC50 [1, 10] of 11.6 ± 0.53 µM, an IC50 [2, 11] of 55.4 ± 2.98 µM and an IC50 [2, 12] of 12.1 ± 0.32 µM. For the same compound, the viability at 48 h, 40 µM ([3]; 40 μM, 48 h) was 81.7%, the “cytotoxic effect on HUVEC” value [4] was “no remarkable cytotoxic effects” and the viability at 40 µM ([5]; 24 h) was 68.6%. It also gave a viability at 40 µM ([5]; 48 h) of 35.2%.
With `CCOC(=O)C(CC)n1nc(-c2ccc(Cl)cc2)ccc1=O` (stereo not shown) [Compound 1c, Ethyl 2-[6-oxo-3-(4-chlorophenyl)pyridazin-1-yl]butanoate] the melting point was 49 to 51 °C.
In the case of `CCOC(=O)c1cc(CC)n2nc(-c3ccc(Cl)cc3)ccc12` [Compound 5f, Ethyl 2-(4-chlorophenyl)-7-ethylpyrrolo[1,2-b]pyridazine-5-carboxylate], the LC50 at 48 h [6] is reported as 428 µM, the “toxicity on Daphnia magna” value (Daphnia magna Straus) is reported as “moderate toxicity” and the IC50 ([7]; 24 h, read-out: IC50 LoVo 24 h) is reported as ≥ 400 µM. For the same compound, the IC50 ([7]; 48 h, read-out: IC50 LoVo 48 h) was 353 ± 4.1 µM, the viability at 200 µM ([1]; 48 h) was 97% and the viability at 400 µM ([1]; 48 h) was 94%. For the same compound, the IC50 [1, 10] was ≥ 400 µM, the IC50 [2, 11] was ≥ 400 µM and the IC50 [2, 12] was ≥ 400 µM. For the same compound, the viability at 24 h, 400 µM ([3]; 400 μM, 24 h) was 90%, the viability at 48 h, 400 µM ([3]; 400 μM, 48 h) was 91.6% and the viability at 400 µM ([8]; 24 h) was 78.2%. It also gave a viability at 400 µM ([8]; 48 h) of 41.8% and a viability at 400 µM ([5]; 48 h) of 83%.
For `O=c1n(Cl)c(=O)n(Cl)c(=O)n1Cl` [TCIC, trichloroisocyanuric acid], the LC50 (Artemia nauplii) is listed as < 1 µM.
With `CCOC(=O)C(CC)n1nc(-c2ccc(F)cc2)ccc1=O` (stereo not shown) [Compound 1b, Ethyl 2-[6-oxo-3-(4-fluorophenyl)pyridazin-1-yl]butanoate] the melting point was 59 to 61 °C.
Work on `CCOC(=O)C(CC)n1nc(-c2ccccc2)ccc1=O` (stereo not shown) [Compound 1a, Ethyl 2-(6-oxo-3-phenylpyridazin-1-yl)butanoate] yielded a melting point of 56 to 58 °C.
Compound `O=c1[nH]cc(F)c(=O)[nH]1` [Compound 5-FU, 5-fluorouracil, reference compound] has an IC50 ([7]; 24 h, read-out: IC50 LoVo 24 h) of 76.1 ± 3.09 µM, an IC50 ([7]; 48 h, read-out: IC50 LoVo 48 h) of 66.2 ± 2.66 µM and a viability at 200 µM ([1]; 24 h) of 45.5%. For the same compound, the viability at 200 µM ([1]; 48 h (drug control)) was 18.2%, the IC50 [1, 9] was 80.6 ± 4.39 µM and the IC50 [1, 10] was 60.4 ± 5.04 µM. For the same compound, the cell viability ([4]; 200 μM, 48 h) was “no significant effect”, the “cytotoxic effect on HUVEC” value [4] was “no remarkable cytotoxic effects” and the viability at 200 µM ([8]; 24 h) was 42.3%. The viability at 200 µM ([8]; 48 h) was 28.7%.
For `CCC(C(=O)O)n1nc(-c2ccccc2)ccc1=O` (stereo not shown) [Compound 2a, 2-(6-Oxo-3-phenylpyridazin-1-yl)butanoic acid], the IC50 (Triticum aestivum L.) was 213 µM, the LC50 at 48 h [6] was 521 µM and the “toxicity on Daphnia magna” value (Daphnia magna Straus) was “moderate toxicity”. The IC50 ([7]; 24 h, read-out: IC50 LoVo 24 h) was ≥ 400 µM, the IC50 ([7]; 48 h, read-out: IC50 LoVo 48 h) was ≥ 400 µM and the viability at 200 µM ([1]; 48 h) was 97%. The viability at 400 µM ([1]; 48 h) was 94%, the IC50 [1, 10] was ≥ 400 µM and the IC50 [2, 11] was ≥ 400 µM. For the same compound, the IC50 [2, 12] was ≥ 400 µM, the viability at 200 µM ([8]; 48 h) was 82.9% and the viability at 400 µM ([8]; 24 h) was 69.1%. For the same compound, the viability at 400 µM ([8]; 48 h) was 60.8%, the viability at 400 µM ([5]; 24 h) was 89.3% and the viability at 400 µM ([5]; 48 h) was 85.1%.
